Test results from ChEMBL document CHEMBL3992490, “Synthesis, spectroscopic properties and photodynamic activity of two cationic BODIPY derivatives with application in the photoinactivation of microorganisms” (Eur J Med Chem, 2017).
The source made the active and inactive calls. The rule behind the calls is not given here.

Experiments:
[1] = In vitro photodynamic activity in DMF assessed as reactive oxygen species production by measuring photo-oxidation rate of L-tryptophan after irradiation by absorption spectra analysis
[2] = In vitro photodynamic activity in DMF/5% water assessed as iodine production at 1 uM irradiated with visible light for 5 to 30 mins under argon condition in presence of 10 mM potassium iodide by UV-visible spectra analysis
[3] = In vitro photodynamic activity in DMF/5% water assessed as singlet oxygen production by measuring photo-oxidation rate of DPBF after irradiation in presence of 10 mM potassium iodide by absorption spectra analysis
Escherichia coli [4] = assay: Antibacterial activity against Escherichia coli EC7 assessed as reduction in cell survival at 5 uM irradiated with visible light for 15 mins in presence of 10 mM potassium iodide by UV-visible spectroscopic method; format: functional
[5] = In vitro photodynamic activity in DMF assessed as singlet oxygen production by measuring photodegradation rate of DPBF after irradiation by absorption spectra analysis
[6] = In vitro photodynamic activity in DMF/5% water assessed as iodine production at 1 uM under dark condition in presence of 10 mM potassium iodide by UV-visible spectra analysis
Staphylococcus aureus [7] = assay: Antibacterial activity against Staphylococcus aureus ATCC 25923 assessed as reduction in cell survival at 1 uM irradiated with visible light for 5 mins by UV-visible spectroscopic method; format: functional
Staphylococcus aureus [8] = assay: Dark toxicity against Staphylococcus aureus ATCC 25923 assessed as cell viability at 1 uM measured after 30 mins by UV-visible spectroscopic method; conditions: 0.5 h
Staphylococcus aureus [9] = assay: Antibacterial activity against Staphylococcus aureus ATCC 25923 assessed as reduction in cell survival at 1 uM irradiated with visible light for 5 mins in presence of 10 mM potassium iodide by UV-visible spectroscopic method; format: functional
Escherichia coli [10] = assay: Antibacterial activity against Escherichia coli EC7 assessed as reduction in cell survival at 5 uM irradiated with visible light for 15 mins by UV-visible spectroscopic method; format: functional
Candida albicans [11] = assay: Anti-fungal activity against Candida albicans PC31 assessed as reduction in cell survival at 5 uM irradiated with visible light for 30 mins by UV-visible spectroscopic method; format: functional
Escherichia coli [12] = assay: Dark toxicity against Escherichia coli EC7 assessed as cell viability at 5 uM in presence of 10 mM potassium iodide measured after 30 mins by UV-visible spectroscopic method; conditions: 0.5 h
Staphylococcus aureus [13] = assay: Dark toxicity against Staphylococcus aureus ATCC 25923 assessed as cell viability at 1 uM in presence of 10 mM potassium iodide measured after 30 mins by UV-visible spectroscopic method; conditions: 0.5 h
Candida albicans [14] = assay: Anti-fungal activity against Candida albicans PC31 assessed as reduction in cell survival at 5 uM irradiated with visible light for 30 mins in presence of 10 mM potassium iodide by UV-visible spectroscopic method; format: functional
[15] = In vitro photodynamic activity in DMF/5% water assessed as singlet oxygen production by measuring photo-oxidation rate of DPBF after irradiation by absorption spectra analysis
[16] = In vitro photodynamic activity in DMF/5% water assessed as iodine production at 1 uM irradiated with visible light for 5 to 30 mins under aerobic condition in presence of 10 mM potassium iodide by UV-visible spectra analysis
[17] = In vitro photodynamic activity in DMF/5% water assessed as reactive oxygen species production by measuring photo-oxidation rate of L-tryptophan after irradiation in presence of DABCO by absorption spectra analysis
[18] = In vitro photodynamic activity in n-heptane/0.1 M AOT/water micelles assessed as singlet oxygen production by measuring photodegradation rate of DPBF after irradiation by absorption spectra analysis
[19] = In vitro photodynamic activity in DMF/10% water assessed as reactive oxygen species production by measuring photo-oxidation rate of L-tryptophan after irradiation by absorption spectra analysis
[20] = In vitro photodynamic activity in DMF/5% water assessed as singlet oxygen production by measuring photo-oxidation rate of DPBF after irradiation in presence of 50 mM potassium iodide by absorption spectra analysis
Candida albicans [21] = assay: Dark toxicity against Candida albicans PC31 assessed as cell viability at 5 uM measured after 30 mins by UV-visible spectroscopic method; conditions: 0.5 h
Escherichia coli [22] = assay: Dark toxicity against Escherichia coli EC7 assessed as cell viability at 5 uM measured after 30 mins by UV-visible spectroscopic method; conditions: 0.5 h
[23] = In vitro photodynamic activity in DMF assessed as singlet oxygen production by measuring decrease in DPBF level after irradiation by absorption spectra analysis; conditions: TDE = time-dependent effect
[24] = Ratio of rate constant for induction of singlet oxygen production in DMF assessed as photodegradation rate of DPBF to rate constant for induction of reactive oxygen species production in DMF assessed as photodegradation rate of L-tryptophan
[25] = In vitro photodynamic activity in DMF/10% water assessed as reactive oxygen species production by measuring photo-oxidation rate of L-tryptophan after irradiation in presence of 50 mM potassium iodide by absorption spectra analysis
Candida albicans [26] = assay: Dark toxicity against Candida albicans PC31 assessed as cell viability at 5 uM in presence of 10 mM potassium iodide measured after 30 mins by UV-visible spectroscopic method; conditions: 0.5 h
[27] = In vitro photodynamic activity in DMF/5% water assessed as reactive oxygen species production by measuring photo-oxidation rate of L-tryptophan after irradiation in presence of D-mannitol by absorption spectra analysis
[28] = In vitro photodynamic activity in DMF/5% water assessed as reactive oxygen species production by measuring photo-oxidation rate of L-tryptophan after irradiation by absorption spectra analysis

SMILES	K [1] [×10⁻⁴ /s]	Activity [2]	K [3]	Activity (Escherichia coli [4])	K [5] [×10⁻⁵ /s]	Activity [6]	Activity (Staphylococcus aureus [7]) [deltalog10CFU/ml]	Activity (Staphylococcus aureus [8])	Activity (Staphylococcus aureus [9])	Activity (Escherichia coli [10]) [deltalog10CFU/ml]	Activity (Candida albicans [11]) [deltalog10CFU/ml]	Activity (Escherichia coli [12])	Activity (Staphylococcus aureus [13])	Activity (Candida albicans [14])	K [15]	Activity [16]	K [17] [×10⁻⁵ /s]	K [18] [×10⁻⁴ /s]	K [19] [×10⁻⁵ /s]	K [20]	further results
C[N+](C)(C)CCCOc1ccc(C2=C3C=CC=[N+]3[B-](F)(F)n3cccc32)cc1	3.44	inactive	2.79 ×10⁻⁵ /s	Active	4.15	inactive	>5	Non-Toxic	Active	2.5	0.9	Non-Toxic	Non-Toxic	Active	5.81 ×10⁻⁵ /s	Active	3	1.25	2.79	0.64 ×10⁻⁵ /s	Activity (Candida albicans [21]): Non-Toxic; Activity (Escherichia coli [22]): Non-Toxic; Activity [23]: Tde; Ratio [24]: 8.3; K [25]: 9.55 ×10⁻⁵ /s; Activity (Candida albicans [26]): Non-Toxic; K [27]: 1.56 ×10⁻⁵ /s; K [28]: 7.86 ×10⁻⁵ /s
CC1=CC(C)=[N+]2C1=C(c1ccc([N+](C)(C)C)cc1)c1c(C)cc(C)n1[B-]2(F)F	3.06	inactive	1.58 ×10⁻⁴ /s	Active	9.51	inactive	>5	Non-Toxic	Active	2.5	3.7	Non-Toxic	Non-Toxic	Active	1.8 ×10⁻⁴ /s	Active	2.98	1.95	2.13	1.02 ×10⁻⁴ /s	Activity (Candida albicans [21]): Non-Toxic; Activity (Escherichia coli [22]): Non-Toxic; Activity [23]: Tde; Ratio [24]: 3.2; K [25]: 4.42 ×10⁻⁵ /s; Activity (Candida albicans [26]): Non-Toxic; K [27]: 1.41 ×10⁻⁵ /s; K [28]: 4.75 ×10⁻⁵ /s
